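48-hour exposure; five concentrations; linearly interpolated endpoints. Abbreviation: GI50, concentration required for 50% inhibition of growth. The concentration for full growth arrest is given as TGI.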
Tests used:
Experiment in all cases: NCI-60 cell line screen, 48 h
KM12 colon = system: KM12 colon
MCF7 breast = system: MCF7 breast
COLO 205 colon = system: COLO 205 colon
MALME-3M melanoma = system: MALME-3M melanoma
TK-10 renal = system: TK-10 renal
RPMI-8226 leukemia = system: RPMI-8226 leukemia
HOP-62 NSCLC = system: HOP-62 NSCLC
CCRF-CEM leukemia = system: CCRF-CEM leukemia
HOP-92 NSCLC = system: HOP-92 NSCLC
OVCAR-4 ovarian = system: OVCAR-4 ovarian
SW-620 colon = system: SW-620 colon
SF-295 CNS = system: SF-295 CNS
T-47D breast = system: T-47D breast
M14 melanoma = system: M14 melanoma
OVCAR-8 ovarian = system: OVCAR-8 ovarian
K-562 leukemia = system: K-562 leukemia
OVCAR-5 ovarian = system: OVCAR-5 ovarian
SK-MEL-28 melanoma = system: SK-MEL-28 melanoma
HT29 colon = system: HT29 colon
BT-549 breast = system: BT-549 breast
SNB-19 CNS = system: SNB-19 CNS
UACC-62 melanoma = system: UACC-62 melanoma
LOX IMVI melanoma = system: LOX IMVI melanoma
MOLT-4 leukemia = system: MOLT-4 leukemia
PC-3 prostate = system: PC-3 prostate
SF-268 CNS = system: SF-268 CNS
HCT-116 colon = system: HCT-116 colon
NCI/ADR-RES ovarian = system: NCI/ADR-RES ovarian
NCI-H226 lung = system: NCI-H226 lung
SK-MEL-5 melanoma = system: SK-MEL-5 melanoma
SF-539 CNS = system: SF-539 CNS
A549 NSCLC = system: A549 NSCLC
UO-31 renal = system: UO-31 renal
OVCAR-3 ovarian = system: OVCAR-3 ovarian
DU-145 prostate = system: DU-145 prostate
SN12C renal = system: SN12C renal
HCC-2998 colon = system: HCC-2998 colon
SNB-75 CNS = system: SNB-75 CNS
CAKI-1 renal = system: CAKI-1 renal
SK-OV-3 ovarian = system: SK-OV-3 ovarian
NCI-H460 lung = system: NCI-H460 lung
EKVX NSCLC = system: EKVX NSCLC
SR leukemia = system: SR leukemia
MDA-MB-231 breast = system: MDA-MB-231 breast
IGROV1 ovarian = system: IGROV1 ovarian
HS 578T breast = system: HS 578T breast
HCT-15 colon = system: HCT-15 colon
U251 CNS = system: U251 CNS
A498 renal = system: A498 renal
786-0 renal = system: 786-0 renal
RXF 393 renal = system: RXF 393 renal
UACC-257 melanoma = system: UACC-257 melanoma
NCI-H23 lung = system: NCI-H23 lung
MDA-MB-435 = system: MDA-MB-435
ACHN renal = system: ACHN renal
NCI-H522 lung = system: NCI-H522 lung
HL-60(TB) leukemia = system: HL-60(TB) leukemia

COc1ccc(Nc2c3ccccc3nc3occc23)cc1
GI50 (KM12 colon): 0.274 µM | TGI (KM12 colon): 5.43 µM | GI50 (MCF7 breast): 0.682 µM | TGI (MCF7 breast): 36.1 µM | GI50 (COLO 205 colon): 2 µM | GI50 (MALME-3M melanoma): 2.31 µM | TGI (MALME-3M melanoma): 34.3 µM | GI50 (TK-10 renal): 1.61 µM | TGI (TK-10 renal): 20.6 µM | GI50 (RPMI-8226 leukemia): 1.12 µM | TGI (RPMI-8226 leukemia): 12.4 µM | GI50 (HOP-62 NSCLC): 5.42 µM | TGI (HOP-62 NSCLC): 30.1 µM | GI50 (CCRF-CEM leukemia): 1.27 µM | TGI (CCRF-CEM leukemia): > 24.7 µM | GI50 (HOP-92 NSCLC): 7.36 µM | TGI (HOP-92 NSCLC): 31.5 µM | GI50 (OVCAR-4 ovarian): 16.9 µM | TGI (OVCAR-4 ovarian): > 100 µM | GI50 (SW-620 colon): 2.9 µM | TGI (SW-620 colon): 39.5 µM | GI50 (SF-295 CNS): 0.533 µM | TGI (SF-295 CNS): 8.09 µM | TGI (T-47D breast): > 38.2 µM | GI50 (M14 melanoma): 2.14 µM | TGI (M14 melanoma): > 43.1 µM | GI50 (OVCAR-8 ovarian): 5.71 µM | TGI (OVCAR-8 ovarian): > 100 µM | GI50 (K-562 leukemia): 0.292 µM | GI50 (OVCAR-5 ovarian): 13.7 µM | TGI (OVCAR-5 ovarian): > 63.4 µM | GI50 (SK-MEL-28 melanoma): 3.06 µM | TGI (SK-MEL-28 melanoma): 22.8 µM | GI50 (HT29 colon): 1.49 µM | GI50 (BT-549 breast): 18.4 µM | TGI (BT-549 breast): 45.8 µM | GI50 (SNB-19 CNS): 2.87 µM | TGI (SNB-19 CNS): > 48.5 µM | GI50 (UACC-62 melanoma): 0.342 µM | GI50 (LOX IMVI melanoma): 6.14 µM | TGI (LOX IMVI melanoma): 59.9 µM | GI50 (MOLT-4 leukemia): 1.55 µM | TGI (MOLT-4 leukemia): > 33 µM | GI50 (PC-3 prostate): 3.25 µM | TGI (PC-3 prostate): > 39.5 µM | GI50 (SF-268 CNS): 3.68 µM | TGI (SF-268 CNS): 34 µM | GI50 (HCT-116 colon): 1.54 µM | TGI (HCT-116 colon): > 32.3 µM | GI50 (NCI/ADR-RES ovarian): 0.921 µM | TGI (NCI/ADR-RES ovarian): > 36.8 µM | GI50 (NCI-H226 lung): 31.9 µM | TGI (NCI-H226 lung): > 100 µM | GI50 (SK-MEL-5 melanoma): 1.32 µM | TGI (SK-MEL-5 melanoma): 13.4 µM | GI50 (SF-539 CNS): 2.84 µM | TGI (SF-539 CNS): 20.8 µM | GI50 (A549 NSCLC): 3.26 µM | TGI (A549 NSCLC): 41.6 µM | GI50 (UO-31 renal): 22.5 µM | TGI (UO-31 renal): > 100 µM | GI50 (OVCAR-3 ovarian): 0.366 µM | TGI (OVCAR-3 ovarian): 4.2 µM | GI50 (DU-145 prostate): 14.2 µM | TGI (DU-145 prostate): > 100 µM | GI50 (SN12C renal): 2.45 µM | TGI (SN12C renal): 23.4 µM | GI50 (HCC-2998 colon): 0.541 µM | TGI (HCC-2998 colon): 12.2 µM | GI50 (SNB-75 CNS): 9.4 µM | TGI (SNB-75 CNS): > 100 µM | GI50 (CAKI-1 renal): 2.93 µM | TGI (CAKI-1 renal): > 42 µM | GI50 (SK-OV-3 ovarian): 2.21 µM | TGI (SK-OV-3 ovarian): 14.9 µM | GI50 (NCI-H460 lung): 0.87 µM | TGI (NCI-H460 lung): 28.1 µM | GI50 (EKVX NSCLC): 18.1 µM | TGI (EKVX NSCLC): > 52.7 µM | GI50 (SR leukemia): > 100 µM | TGI (SR leukemia): > 100 µM | GI50 (MDA-MB-231 breast): 3.66 µM | TGI (MDA-MB-231 breast): 22.7 µM | GI50 (IGROV1 ovarian): 7.66 µM | TGI (IGROV1 ovarian): > 100 µM | GI50 (HS 578T breast): 6.23 µM | TGI (HS 578T breast): > 67.6 µM | GI50 (HCT-15 colon): 0.336 µM | TGI (HCT-15 colon): 14.1 µM | GI50 (U251 CNS): 3.85 µM | TGI (U251 CNS): > 100 µM | GI50 (A498 renal): 4.5 µM | TGI (A498 renal): 21.8 µM | GI50 (786-0 renal): 5.83 µM | TGI (786-0 renal): > 51.5 µM | GI50 (RXF 393 renal): 1.85 µM | TGI (RXF 393 renal): 17.7 µM | GI50 (UACC-257 melanoma): 9.98 µM | TGI (UACC-257 melanoma): 28.9 µM | GI50 (NCI-H23 lung): 3.72 µM | TGI (NCI-H23 lung): > 27.6 µM | GI50 (MDA-MB-435): 0.171 µM | GI50 (ACHN renal): 9.95 µM | TGI (ACHN renal): > 80.6 µM | GI50 (NCI-H522 lung): 2.35 µM | TGI (NCI-H522 lung): > 100 µM | GI50 (HL-60(TB) leukemia): 1.47 µM
